The target of the assay is T1, TrkA (Homo sapiens, UniProt P04629).
T1 construct: purchased Invitrogen PV3144
T1 sequence (P04629 33-796): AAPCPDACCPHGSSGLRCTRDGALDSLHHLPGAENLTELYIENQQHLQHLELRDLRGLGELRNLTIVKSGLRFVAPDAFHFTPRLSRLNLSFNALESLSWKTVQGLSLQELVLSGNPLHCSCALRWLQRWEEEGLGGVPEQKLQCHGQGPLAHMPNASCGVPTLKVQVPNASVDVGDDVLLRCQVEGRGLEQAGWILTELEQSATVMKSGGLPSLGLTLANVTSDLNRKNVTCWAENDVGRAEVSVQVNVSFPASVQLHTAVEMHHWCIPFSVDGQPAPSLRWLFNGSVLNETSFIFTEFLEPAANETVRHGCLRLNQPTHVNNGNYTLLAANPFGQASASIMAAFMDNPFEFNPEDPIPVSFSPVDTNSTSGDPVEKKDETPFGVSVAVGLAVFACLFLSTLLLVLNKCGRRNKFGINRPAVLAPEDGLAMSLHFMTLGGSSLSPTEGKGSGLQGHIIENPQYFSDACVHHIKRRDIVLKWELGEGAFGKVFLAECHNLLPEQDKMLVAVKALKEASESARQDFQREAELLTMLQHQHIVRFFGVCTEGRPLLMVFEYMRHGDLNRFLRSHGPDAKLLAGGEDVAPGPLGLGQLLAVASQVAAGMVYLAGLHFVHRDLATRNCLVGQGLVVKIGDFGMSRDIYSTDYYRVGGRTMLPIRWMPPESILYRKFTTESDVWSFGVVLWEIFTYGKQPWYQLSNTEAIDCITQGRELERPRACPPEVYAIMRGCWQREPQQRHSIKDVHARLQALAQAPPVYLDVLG
In words: TrkA kinase inhibition, HTRF assay. The assay is classed as biochemical. To be noted: LCK peptide substrate 125 nM, TrkA 2-10 nM pre-incubated with ATP 200 μM. As for the experimental part: TrkA, TrkB, and TrkC enzymes were obtained from Invitrogen (as catalog numbers PV3144, PV3616, and PV3617, respectively). The ability of a compound to inhibit the enzymatic activity of the TrkA, TrkB, and TrkC enzymes was determined in separate assays. Enzyme activity was measured in an HTRF® (homogeneous time resolved fluorescence) assay, which detects enzymatic phosphorylation of a biotinylated synthetic peptide substrate (an LCK peptide analog, biotin-ahx-GAEEEIYAAFFA, from Genemed Synthesis). Phosphorylation is assessed by HTRF® in the presence of an anti-phosphotyrosine antibody conjugated to Eu^3+ cryptate (Cisbio) as donor fluorophore, and streptavidin conjugated to allophycocyanin (ProZyme) as acceptor fluorophore. The HTRF® signal was detected at two different wavelengths (620 nm and 665 nm) which were used to calculate the fluorescence ratio.
Each enzyme was titrated to a concentration optimized to ensure accurate measurement of the initial reaction rate. To allow the Trk enzymes to undergo activation and auto-phosphorylation, a 20 minute pre-incubation with ATP was carried out (at twice the final targeted enzyme and ATP concentration) prior to addition of test compound and the peptide substrate.
TrkA in vitro assays were performed by pre-incubating TrkA (2-10 nM) with ATP (200 μM) for 20 minutes at ambient temperature in 50 mM HEPES pH 7.4, 10 mM MgCl2, 2 mM MnCl2, 100 μM Na3VO4, 1 mM dithiothreitol, 0.01% BSA (bovine serum albumin). Then, to the activated Trk enzyme mixture was added the test compound in 2% dimethyl sulfoxide. After 10 minutes, the peptide substrate (125 nM) was added. After 1 hour, enzyme reactions were terminated by addition of equal reaction volumes of detection/stop reagent (containing 0.2 μg/mL anti-phosphotyrosine monoclonal antibody labeled with europium from Cisbio (catalog# PT66-K), and 4 μg/mL PhycoLink® Streptavidin-Allophycocyanin conjugate from ProZyme (catalog# PJ25S) in 60 mM EDTA in 40 mM HEPES pH 7.4, 480 mM KF, 0.01% Tween® 20 and 0.1% BSA bovine serum albumin) Reaction plates were stored at 4° C. overnight before reading the fluorescence ratio signal on a PerkinElmer EnVision™ fluorescence detector. Individual reaction wells were stopped at time points to obtain reaction rates. The test inhibitor compounds were assayed in duplicate, at half-log serial dilutions over a range of concentrations (e.g. starting at 50 μM or 5 μM as the high compound concentration). The percent Trk enzyme inhibition was calculated from the initial rates of the inhibited reactions relative to the uninhibited control. IC50 values were calculated by fitting the inhibition percent to the concentration of inhibitor [I] in the assay in equation 1 below, to solve for the IC50.
Inhibition %=100[I]/([I]+[IC50]) equation 1
A general note: Time-resolved FRET reads energy transfer from a long-lived donor to a nearby acceptor.
On to `CNC(=O)c1ccc(-c2cc(O[C@H](C)C(F)(F)F)c3c(N)n[nH]c3c2)cc1N1CCC(N2CCOCC2)CC1` [Example 59, 4-(3-amino-4-{[(2R)-1,1,1-trifluoropropan-2-yl]oxy}-1H-indazol-6-yl)-N-methyl-2-[4-(morpholin-4-yl)piperidin-1-yl]benzamide], for which half-maximal inhibition (IC50) was put at 2550 nM.

`CNC(=O)c1ccc(-c2cc(O[C@H](C)C(F)(F)F)c3c(N)n[nH]c3c2)cc1N1CCC(O)(c2ccccc2)CC1` [Example 60, 4-(3-amino-4-{[(2R)-1,1,1-trifluoropropan-2-yl]oxy}-1H-indazol-6-yl)-2-(4-hydroxy-4-phenylpiperidin-1-yl)-N-methylbenzamide]: the half-maximal inhibitory concentration (IC50) (commonly the concentration that inhibits the measured activity by half) came to 223 nM.

On to `CNC(=O)c1ccc(-c2cc(O[C@H](C)C(F)(F)F)c3c(N)n[nH]c3c2)cc1N1CCC(C2CCCCC2)CC1` [Example 61, 4-(3-amino-4-{[(2R)-1,1,1-trifluoropropan-2-yl]oxy}-1H-indazol-6-yl)-2-(4-cyclohexylpiperidin-1-yl)-N-methylbenzamide], for which the IC50 stood at 135 nM.

As to `CN1CCC(Oc2cc(-c3ccc(C(=O)NC4CC4)c(N4CCN(c5ccccc5)CC4)c3)cc3[nH]nc(N)c23)CC1` [Example 62, 4-{3-amino-4-[(1-methylpiperidin-4-yl)oxy]-1H-indazol-6-yl}-N-cyclopropyl-2-(4-phenylpiperazin-1-yl)benzamide], half-maximal inhibition (IC50) required 67.1 nM.

In turn, `NC(=O)c1ccc(-c2cc(OC3CCNCC3)c3c(N)n[nH]c3c2)cc1N1CCN(c2ccccc2)CC1` [Example 63, 4-[3-amino-4-(piperidin-4-yloxy)-1H-indazol-6-yl]-2-(4-phenylpiperazin-1-yl)benzamide] had an IC50 of 25.3 nM.

Take `CC(=O)N1CCC(Oc2cc(-c3ccc(C(N)=O)c(N4CCN(c5ccccc5)CC4)c3)cc3[nH]nc(N)c23)CC1` [Example 64, 4-{4-[(1-acetylpiperidin-4-yl)oxy]-3-amino-1H-indazol-6-yl}-2-(4-phenylpiperazin-1-yl)benzamide]: half-maximal inhibition (IC50) required 8.45 nM.

Compound `NC(=O)c1ccc(-c2cc(O[C@H]3CCOC3)c3c(N)n[nH]c3c2)cc1N1CCN(C2CC2)CC1` [Example 65, 4-{3-amino-4-[(3S)-tetrahydrofuran-3-yloxy]-1H-indazol-6-yl}-2-(4-cyclopropylpiperazin-1-yl)benzamide] registered an IC50 of 173 nM. Against the preceding compound, the IC50 is about 20-fold higher.

For `NC(=O)c1ccc(-c2cc(O[C@H]3CCOC3)c3c(N)n[nH]c3c2)cc1N1CCN(c2ccccc2)CC1` [Example 66, 4-{3-amino-4-[(3S)-tetrahydrofuran-3-yloxy]-1H-indazol-6-yl}-2-(4-phenylpiperazin-1-yl)benzamide], inhibition was half-maximal at 2.93 nM (IC50). This IC50 lies about 59-fold lower than the previous one.

For the compound `NC(=O)c1ccc(-c2cc(O[C@H]3CCOC3)c3c(N)n[nH]c3c2)cc1N1CCN(c2cccnc2)CC1` [Example 67, 4-{3-amino-4-[(3S)-tetrahydrofuran-3-yloxy]-1H-indazol-6-yl}-2-[4-(pyridin-3-yl)piperazin-1-yl]benzamide], the midpoint of inhibition, the IC50, lay at 7.97 nM.

Consider `NC(=O)c1ccc(-c2cc(O[C@@H]3CCOC3)c3c(N)n[nH]c3c2)cc1N1CCN(c2cccnc2)CC1` [Example 68, 4-{3-amino-4-[(3R)-tetrahydrofuran-3-yloxy]-1H-indazol-6-yl}-2-[4-(pyridin-3-yl)piperazin-1-yl]benzamide], for which the IC50 was 8.06 nM.

As to `NC(=O)c1ccc(-c2cc(OC3CCCC3)c3c(N)n[nH]c3c2)cc1N1CCN(c2ccccn2)CC1` [Example 75, 4-[3-amino-4-(cyclopentyloxy)-1H-indazol-6-yl]-2-[4-(pyridin-2-yl)piperazin-1-yl]benzamide], the 50% inhibitory concentration (IC50) was found to be 2.31 nM. Against the preceding compound, the IC50 is about 3.5-fold lower.

In the case of `NC(=O)c1ccc(-c2cc(OC3CCCC3)c3c(N)n[nH]c3c2)cc1N1CCC(c2ccccc2)CC1` [Example 76, 4-[3-amino-4-(cyclopentyloxy)-1H-indazol-6-yl]-2-(4-phenylpiperidin-1-yl)benzamide], half-maximal inhibition (IC50) was put at 24.5 nM.

Consider `NC(=O)c1ccc(-c2cc(OC3CCCC3)c3c(N)n[nH]c3c2)cc1N1CCN(C2CC2)CC1` [Example 78, 4-[3-amino-4-(cyclopentyloxy)-1H-indazol-6-yl]-2-(4-cyclopropylpiperazin-1-yl)benzamide], for which the IC50 came to 20.1 nM.

`NC(=O)c1ccc(-c2cc(OC3CCCC3)c3c(N)n[nH]c3c2)cc1N1CCC(C(N)=O)CC1` [Example 79, 1-{5-[3-amino-4-(cyclopentyloxy)-1H-indazol-6-yl]-2-carbamoylphenyl}piperidine-4-carboxamide]: inhibition was half-maximal at 221 nM (IC50).

In turn, `NC(=O)c1ccc(-c2cc(OC3CCCC3)c3c(N)n[nH]c3c2)cc1N1CCN(C(=O)c2ccccc2)CC1` [Example 80, 4-[3-amino-4-(cyclopentyloxy)-1H-indazol-6-yl]-2-(4-benzoylpiperazin-1-yl)benzamide] registered an IC50 of 17.5 nM.

`NC(=O)c1ccc(-c2cc(OC3CCCC3)c3c(N)n[nH]c3c2)cc1N1CCN(C(=O)C2CC2)CC1` [Example 81, 4-[3-amino-4-(cyclopentyloxy)-1H-indazol-6-yl]-2-[4-(cyclopropylcarbonyl)piperazin-1-yl]benzamide]: the IC50 was 17.4 nM.

For the compound `NC(=O)c1ccc(-c2cc(OC3CCCC3)c3c(N)n[nH]c3c2)cc1N1CCN(C(=O)N2CCOCC2)CC1` [Example 82, 4-[3-amino-4-(cyclopentyloxy)-1H-indazol-6-yl]-2-[4-(morpholin-4-ylcarbonyl)piperazin-1-yl]benzamide], half-maximal inhibition (IC50) was put at 22.3 nM.

Take `NC(=O)c1ccc(-c2ccc3c(N)n[nH]c3c2)cc1N1CCN(CC(=O)N2CCCC2)CC1` [Example 83, 4-(3-amino-1H-indazol-6-yl)-2-{4-[2-oxo-2-(pyrrolidin-1-yl)ethyl]piperazin-1-yl}benzamide]: the IC50 was 8330 nM.

`NC(=O)c1ccc(-c2ccc3c(N)n[nH]c3c2)cc1N1CCN(c2ccccc2)CC1` [Example 84, 4-(3-amino-1H-indazol-6-yl)-2-(4-phenylpiperazin-1-yl)benzamide]: half-maximal inhibition (IC50) was put at 24.3 nM.

For the compound `NC(=O)c1ccc(-c2ccc3c(N)n[nH]c3c2)cc1N1CCN(C2CCCCC2)CC1` [Example 85, 4-(3-amino-1H-indazol-6-yl)-2-(4-cyclohexylpiperazin-1-yl)benzamide], the IC50 was 2240 nM.

In turn, `NC(=O)c1ccc(-c2ccc3c(N)n[nH]c3c2)cc1N1CCN(c2ccccn2)CC1` [Example 86, 4-(3-amino-1H-indazol-6-yl)-2-[4-(pyridin-2-yl)piperazin-1-yl]benzamide] gave a 50% inhibitory concentration (IC50) of 16.1 nM.

For the compound `NC(=O)c1ccc(-c2ccc3c(N)n[nH]c3c2)cc1N1CCN(Cc2ccccc2)CC1` [Example 87, 4-(3-amino-1H-indazol-6-yl)-2-(4-benzylpiperazin-1-yl)benzamide], the IC50 is 43.3 nM. Against the preceding compound, the IC50 is about 2.7-fold higher.

In turn, `NC(=O)c1ccc(-c2ccc3c(N)n[nH]c3c2)cc1N1CCN(C2CC2)CC1` [Example 88, 4-(3-amino-1H-indazol-6-yl)-2-(4-cyclopropylpiperazin-1-yl)benzamide] had an IC50 of 8440 nM.

On to `NC(=O)c1ccc(-c2ccc3c(N)n[nH]c3c2)cc1N1CCN(CCN2CCOCC2)CC1` [Example 89, 4-(3-amino-1H-indazol-6-yl)-2-{4-[2-(morpholin-4-yl)ethyl]piperazin-1-yl}benzamide], for which the IC50 is 13500 nM.

`NC(=O)c1ccc(-c2ccc3c(N)n[nH]c3c2)cc1N1CCN(c2cccnc2)CC1` [Example 90, 4-(3-amino-1H-indazol-6-yl)-2-[4-(pyridin-3-yl)piperazin-1-yl]benzamide]: half-maximal inhibition (IC50) required 227 nM. Against the preceding compound, the IC50 is about 59-fold lower.

The compound `CC(Oc1cc(-c2ccc(C(N)=O)c(N3CCN(C4CCCCC4)CC3)c2)cc2[nH]nc(N)c12)C(F)(F)F` (stereo not shown) [Example 93, 4-{3-amino-4-[(1,1,1-trifluoropropan-2-yl)oxy]-1H-indazol-6-yl}-2-(4-cyclohexylpiperazin-1-yl)benzamide] displayed a 50% inhibitory concentration (IC50) of 27 nM.

With `CC(Oc1cc(-c2ccc(C(N)=O)c(N3CCN(c4ccccn4)CC3)c2)cc2[nH]nc(N)c12)C(F)(F)F` (stereo not shown) [Example 94, 4-{3-amino-4-[(1,1,1-trifluoropropan-2-yl)oxy]-1H-indazol-6-yl}-2-[4-(pyridin-2-yl)piperazin-1-yl]benzamide], the IC50 is 2.41 nM.

On to `CC(Oc1cc(-c2ccc(C(N)=O)c(N3CCN(CCN4CCOCC4)CC3)c2)cc2[nH]nc(N)c12)C(F)(F)F` (stereo not shown) [Example 95, 4-{3-amino-4-[(1,1,1-trifluoropropan-2-yl)oxy]-1H-indazol-6-yl}-2-{4-[2-(morpholin-4-yl)ethyl]piperazin-1-yl}benzamide], for which the IC50 was determined as 89.8 nM.

The values are drawn from patent US20160376240A1, “6 Phenyl or 6 Pyridin 3 YL Indazole Derivatives and Methods of Use” (ABBVIE INC., priority 2014, published 2016).
